Our source for the melting point values is a melting point compilation (Tetko et al.; mined from patent text by program, amines drawn as free bases though some values may be those of a salt).

Molecules are shown by their SMILES.

One may read the melting point as the temperature, or range, at which the solid turns liquid. Consider `Cc1nc(C=Cc2nc3ccc(F)cc3c(=O)n2-c2ccccc2C)cs1`, for which the melting point fell in the range of 211 to 212 °C.

As for `COc1cc2c(cc1OC)C1c3ccccc3CCN1C2` (stereo not drawn), the melting point worked out at 186 °C.

Regarding `C=C(Cc1ccccc1)C(=O)NCC(=O)O`, the melting point is 82 °C.

The compound `Cc1cc(C)nc(OC(C)C(=O)O)n1` (stereo not drawn) had a melting point of 117 °C.

Compound `CCC1CCC(C2CCC(CC)CC2)CC1` (stereo not drawn) came in with a melting point of -6 °C.

Compound `Cn1cc2c3c(cccc31)C(=O)NCC2` registered a melting point of 194 to 195 °C.

Compound `CN(C)c1cc(C(OC(=O)C(Cl)(Cl)Cl)c2ccccc2)c([N+](=O)[O-])cc1[N+](=O)[O-]` (stereo not drawn) registered a melting point of 91 to 92 °C.

Consider `c1ccc(-c2nc(SCCCSCCCSc3nc(-c4ccccc4)c(-c4ccccc4)[nH]3)[nH]c2-c2ccccc2)cc1`, for which the melting point was in the range of 208 to 209 °C.

In turn, `CCn1cc(C(=O)O)c(=O)c2ccc(-n3cccc3)nc21` displayed a melting point of 230 to 232 °C.

In turn, `Cc1ccc2c(c1)c(C)c1n2C(=O)C(Cc2nc[nH]c2C)CC1` (stereo not drawn) gave a melting point of 255 to 258 °C.

`Fc1cc(F)c2c(c1)C[C@@H](n1c(CCNCc3ccccc3)c[nH]c1=S)CO2` returned a melting point of 188 to 190 °C.

`O=C(O)CS(=O)(=O)c1ccc2c(-c3ccccc3F)noc2c1`: the melting point was 168 to 169 °C.

For `CCCC(=O)NCCc1c[nH]c2ccc(OCCN3CCCCC3)cc12`, the melting point was 113 to 114 °C.

`CCC1(CC)C(=O)N(C(C)(C)C)CC(C)(C)N1OC(C(=O)O)c1ccccc1` (stereo not drawn) came in with a melting point of 125 to 133 °C.

For `CC(C)(O)c1nc(-c2ccc(-c3cnc4[nH]c(=O)n(CC5CCOCC5)c4n3)cc2)n[nH]1`, the melting point lay in the range of 249 to 253 °C.

In the case of `Cc1cccc(C)c1N1CCN(CCNc2c(Cl)cnn(C)c2=O)CC1`, the melting point lay in the range of 225 to 232 °C.

Compound `Cc1c(Cl)ccc(C(=O)O)c1F` returned a melting point of 198 °C.

For the compound `CC(=O)c1ccc(OCc2cncnc2)cc1OC(CCC(=O)O)c1ccccc1C` (racemic), the melting point lay within 142 to 144 °C.

As to `C[C@@H]1Cc2ccsc2[C@H](C)N1CCNC(=O)c1ccc(C(F)(F)F)cc1` (relative stereo), the melting point is 88 to 91 °C.

In turn, `O=C(Nc1ccccc1O)C(=O)Nc1ccccc1O` came in with a melting point of over 250 °C.

As for `O=C1CCC(N2Cc3c(OCc4ccc(CN5Cc6ccccc6C5)cc4)cccc3C2=O)C(=O)N1` (stereo not drawn), the melting point lay within 153 to 155 °C.

The compound `Cc1nn(-c2ccc(F)cc2)cc1C(=O)N(CC(=O)O)c1ccc(OCC(C)(C)C)c(C#N)c1` gave a melting point of 157 °C.

Compound `CCCc1c(OCCCOc2ccc(CC(=O)O)cc2)ccc(C(C)=O)c1O` showed a melting point of 106 to 108 °C.

For the compound `N#CCCNC(=O)c1n[nH]cc1NC(=O)c1cccc(C(F)(F)F)c1`, the melting point lay in the range of 188 to 190 °C.

On to `COc1cc2c(Cl)c(C#N)cnc2c(OC)c1OC`, for which the melting point fell in the range of 161 to 163 °C.

`CCCCN1CSC(=S)N(Cc2ccncc2)C1` registered a melting point of 75 to 80 °C.

For the compound `C=C(C)CCOc1c(-c2ccc(S(C)(=O)=O)cc2)cnn(-c2ccc(F)cc2)c1=O`, the melting point is 109 to 111 °C.

Turning to `COc1nc(NC(=O)NS(=O)(=O)c2ccccc2S(=O)(=O)N2CCC2)nc(OC)n1`, the melting point was in the range of 175 to 177 °C.

Regarding `O=c1c(-c2ccccc2)coc2ccccc12`, the melting point was 132 to 134 °C.

Compound `COc1ccc(-c2ccc(NC(=O)CCc3ccc(CN4CCCC4)cc3)cc2)cc1` returned a melting point of 185 to 188 °C.

`CSC(=NC#N)NS(=O)(=O)c1cc(Cl)ccc1Cl` came in with a melting point of 145 °C.

Take `CCN(CC)CCOc1ccc(Nc2ncc3c(n2)N(C2CCCC2)C(=O)NC3)cc1C`: the melting point was in the range of 175 to 177 °C.

As for `CC1(C)OCCN1CCNc1ccc(NCCN2CCOC2(C)C)c2c1C(=O)c1c(O)ccc(O)c1C2=O`, the melting point fell in the range of 255 to 256 °C.

As to `Cc1cc(Br)c2c(c1)C=C(C(=O)O)C(C(F)(F)F)O2` (stereo not drawn), the melting point fell in the range of 237 to 238 °C.

`CC(C)C[C@H](NC(=O)OCC1c2ccccc2-c2ccccc21)C(=O)N[C@H]1CCOC1OCc1ccc2ccccc2c1` (stereo partly drawn): the melting point lay in the range of 79 to 80 °C.

For the compound `COc1nc(OC)c(C(C)C)c(C(=O)c2cc(C)cc(Br)c2)n1`, the melting point is 122 to 123 °C.

The compound `CC(C)=Nc1c2c(nc3ccccc13)CCCC2` gave a melting point of 127 to 130 °C.

On to `C=CCOc1cc(C(=O)CCCCCCCCCCCCC)c(O)c(C)c1C`, for which the melting point lay in the range of 65 to 66 °C.

`CC(C)n1nc(-c2c(-c3ccccc3)nn3ccc(Oc4ccncc4)cc23)ccc1=O` registered a melting point of 218 to 220 °C.

`O=C(CCl)c1ccc(-c2ccc(S(=O)(=O)C(F)F)cc2)cc1` had a melting point of 157 to 159 °C.

Regarding `CC(C)N(Cc1ccc2cc(NC(=O)c3ccc(-c4ccc(Cl)cc4)cc3)ccc2c1)C(C)C`, the melting point lay in the range of 246 to 250 °C.

As for `Cc1nc2c(c(=O)[nH]1)-c1ccc(Cl)cc1C(c1ccccc1)=NC2`, the melting point lay in the range of 245 to 248 °C.

`CC(C)(CO)NCCCn1ccnc1`: the melting point was 81 to 85 °C.

Regarding `Cc1cc(C(=O)C(C#N)C(=O)Nc2ccccc2)c(C)n1C` (stereo not drawn), the melting point lay in the range of 158 to 160 °C.

Turning to `COC(=O)c1cc(Br)c(O)c(Br)n1`, the melting point was 148 to 150 °C.

For `COc1cc2c(cc1O[Si](C)(C)C(C)(C)C)CN(C(=O)OC(C)(C)C)CC2`, the melting point was in the range of 46 to 49 °C.

`CCCCCCCCCCOc1cc(N)cc(OCCCCCCCCCC)c1` returned a melting point of 48 to 50 °C.

The compound `CS(=O)(=O)c1cccc(CNC(=O)c2nc3scc(COCc4ccc(C(=O)O)cc4)c3c(=O)[nH]2)c1` had a melting point of 265 to 267 °C.

For `CN(C(=O)Cc1ccccc1)c1ccc(OC23CC4CC(CC(C4)C2)C3)cc1`, the melting point lay in the range of 89 to 91 °C.

In turn, `O=c1c(Cl)c(OCc2ccc(F)cc2F)ccn1Cc1ccc2[nH]ccc2c1` displayed a melting point of 152 to 153 °C.

`Cc1cc(NC(=O)NC(=O)c2c(Cl)cccc2Cl)ncc1-c1ccccc1` showed a melting point of 210 to 214 °C.

As to `CC(C)(CO)c1cn2nc(NCCCN3CCC(OC(c4ccccc4)c4ccccc4)CC3)ccc2n1`, the melting point is 105 to 108 °C.

`Cc1ccccc1C(=O)Nc1ccc(C(=O)N2CCCC(N(C)C)c3ccccc32)cc1O` (stereo not drawn) registered a melting point of 202 °C.

For the compound `CCC(=O)C(=Cc1cc(O)c(O)c([N+](=O)[O-])c1)C(=O)CC`, the melting point lay in the range of 133 to 135 °C.

Compound `CC1(C)OC[C@H](COc2ccc(C(=O)c3ccc([N+](=O)[O-])cc3)cc2)O1` gave a melting point of 92 to 93 °C.

Compound `Cc1oc(NC(=O)CCl)c(C#N)c1C` gave a melting point of 114 °C.

Compound `Cc1ccc2c(c1)C(=O)N(C)Cc1c(C(N)=NO)ncn1-2` returned a melting point of 227 to 229 °C.

Regarding `CCC1(CCI)C(=O)N2CC=CC(C(=O)OC)N2C1=O` (stereo not drawn), the melting point was in the range of 95 to 97 °C.

For the compound `Cc1cc(Cl)cc(C(=O)NCC(C)S(C)=O)c1NC(=O)c1cc(C(F)(F)F)nn1-c1ncccc1Cl` (stereo not drawn), the melting point was in the range of 229 to 232 °C.

The compound `COc1cccc2c1C[C@H]1C[C@@H](CN3CCC(O)(c4ccc(Cl)cc4)CC3)CN(C)[C@@H]1C2` yielded a melting point of 202 to 204 °C.

`CCc1cccc(CC)c1N1C(=S)N(C)C(O)C1O` (stereo not drawn) yielded a melting point of 87 to 90 °C.

The compound `O=C1NC(=O)C(Sc2ccc3cc(O)ccc3c2)S1` (stereo not drawn) had a melting point of 182 to 183 °C.

The compound `Nc1ncc(C(=O)CBr)cc1Cl` registered a melting point of 134 °C.
